In US9365522B2, “Pyrazole amide derivative” (AMGEN INC., priority 2015, dated 2016):

Molecular target: T1, ligand binding domain of human ROR gamma (Homo sapiens, UniProt P51449)
T1 construct: NM_001001523; expressed in transfected cells; host or cells: HEK293T
T1 sequence (P51449 247-497 isoform P51449-2): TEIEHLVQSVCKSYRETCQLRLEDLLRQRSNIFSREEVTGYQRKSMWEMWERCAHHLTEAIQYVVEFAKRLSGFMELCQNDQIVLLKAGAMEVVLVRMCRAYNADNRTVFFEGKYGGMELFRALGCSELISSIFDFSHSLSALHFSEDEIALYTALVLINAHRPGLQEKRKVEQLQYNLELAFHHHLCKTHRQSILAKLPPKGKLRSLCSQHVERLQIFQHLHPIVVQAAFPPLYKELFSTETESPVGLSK
Assay: ROR gamma reporter gene assay (GAL4-RORγ LBD luciferase, Dual-Glo)
Type: cell-based
Settings: HEK293T cells transfected with pM-ROR gamma, 8 concentrations 3.5 nM to 10.5 μM, 24 h incubation; read-out: result (pIC50, inhibition of RORγ transcriptional activity) (converted)
Outline: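 HEK293T cells co-transfected with GAL4-DBD fused to human RORγ LBD (aa 247-497), 5×UAS firefly luciferase reporter and CMV-renilla, in charcoal-stripped serum.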

Row | SMILES | IC50
1 | CC1(C)CCC(N(CC(=O)c2c(Cl)cncc2Cl)C(=O)c2cnn([C@H]3CC[C@](C)(C(=O)O)CC3)c2C(F)(F)F)CO1 (stereo partly drawn) [Example 323, trans-4-(4-((2(3,5-dichloropyridin-4-yl)-2-oxoethyl)-(6,6-dimethyloxan-3-yl)carbamoyl)-5-(trifluorornethyl)pyrazol-1-yl)-1-methylcyclohexane-1-carboxylic acid] | 380000 pM
2 | O=C(c1c(C(F)(F)F)nn([C@H]2CC[C@H](C(=O)O)CC2)c1C(F)(F)F)N(CCc1c(Cl)cncc1Cl)Cc1ccc(F)cc1 [Example 412, trans-4-(4-(2-(3,5-dichloropyridin-4-yl)ethyl-((4-fluorophenyl)methyl)carbamoyl)-3,5-bis(trifluoromethyl)pyrazol-1-yl)cyclohexane-1-carboxylic acid] | 1.12e+06 pM
3 | Cc1cc(Cl)c(C(=O)CN(C(=O)c2cnn([C@H]3CC[C@](C)(C(=O)O)CC3)c2Cl)[C@H]2C[C@@H]3[C@H](C2)C3(C)C)c(Cl)c1 [Example 366, trans-4-(5-chloro-4-((2-(2,6-dichloro-4-methylphenyl)-2-oxoethyl)((1R,3r,5S)-6,6-dimethylbicyclo[3.1.0]hexan-3-yl)carbamoyl)-1H-pyrazol-1-yl)-1-methylcyclohexanecarboxylic acid] | 15100 pM
4 | CC(C)CN(CC(=O)c1c(Cl)cncc1Cl)C(=O)c1cnn([C@H]2CC[C@H](C(=O)O)CC2)c1C(F)(F)F [Example 26, trans-4-(4-((2-(3,5-dichloropyridin-4-yl)-2-oxoethyl)(isobutyl)carbamoyl)-5-(trifluoromethyl)-1H-pyrazol-1-yl)cyclohexanecarboxylic acid] | 282000 pM
5 | COc1cccc(Cl)c1C(=O)CN(C(=O)c1cnn(C23CCC(C(=O)O)(CC2)CC3)c1C(F)(F)F)C1CCC(C)(C)CC1 [Example 243, 4-(4-((2-(2-chloro-6-methoxyphenyl)-2-oxoethyl)-(4,4-dimethylcyclohexyl)carbamoyl)-5-(trifluoromethyl)pyrazol-1-yl)bicyclo[2.2.2]octane-1-carboxylic acid] | 55000 pM
6 | CC1(C)CCC(N(CC(=O)c2c(Cl)cc(Cl)cc2Cl)C(=O)c2cnn([C@H]3CC[C@H](C(=O)O)CC3)c2C(F)(F)F)CC1 [Example 189, trans-4-(4-((4,4-dimethylcyclohexyl)-(2-oxo-2-(2,4,6-trichlorophenyl)ethyl)carbamoyl)-5-(trifluoromethyl)pyrazol-1-yl)cyclohexane-1-carboxylic acid] | 30200 pM
7 | O=C(CN(CCC1CC1)C(=O)c1cnn([C@H]2CC[C@H](C(=O)O)CC2)c1C(F)(F)F)c1c(Cl)cncc1Cl [Example 34, trans-4-(4-((2-cyclopropylethyl)(2-(3,5-dichloropyridin-4-yl)-2-oxoethyl)carbamoyl)-5-(trifluoromethyl)-1H-pyrazol-1-yl)cyclohexanecarboxyic acid] | 1.35e+06 pM
8 | CC1(C)[C@@H]2C[C@H](N(CC(=O)c3c(Cl)cc(Cl)cc3Cl)C(=O)c3cnn(C45CCC(C(=O)O)(CC4)CC5)c3C(F)(F)F)C[C@@H]21 [Example 241, 4-(4-(((1R,3r,5S)-6,6-dimethyl-3-bicyclo[3.1.0]hexanyl)-(2-oxo-2-(2,4,6-trichlorophenyl)ethyl)carbamoyl)-5-(trifluoromethyl)pyrazol-1-yl)bicyclo(2.2.2)octane-1-carboxylic acid] | 5130 pM
9 | CC1(C)[C@@H]2C[C@H](N(CC(O)c3ncncc3Cl)C(=O)c3cnn([C@H]4CC[C@](C)(C(=O)O)CC4)c3C(F)(F)F)C[C@@H]21 (stereo partly drawn) [Example 408, trans-4-(4-((2-(5-chloropyrimidin-4-yl)-2-hydroxyethyl)((1R,3r,5S)-6,6-dimethylbicyclo[3.1.0]hexan-3-yl)carbamoyl)-5-(trifluoromethyl)-1H-pyrazol-1-yl)-1-methylcyclohexanecarboxylic acid] | 331000 pM

Continued, values first:

Row | IC50 | SMILES
10 | 2.82e+06 pM | O=C(CN(Cc1cc(F)cc(F)c1)C(=O)c1cnn([C@H]2CC[C@H](C(=O)O)CC2)c1C(F)(F)F)c1ncc(C(F)(F)F)cc1Cl [Example 152, trans-4-(4-((2-(3-chloro-5-(trifluoromethyl)pyridin-2-yl)-2-oxoethyl)-((3,5-difluorophenyl)methyl)carbamoyl)-5-(trifluoromethyl)pyrazol-1-yl)cyclohexane-1-carboxylic acid]
11 | 50100 pM | CC(C)(C)CN(CC(=O)c1c(Cl)cccc1OC(F)F)C(=O)c1cnn([C@H]2CC[C@](C)(C(=O)O)CC2)c1C(F)(F)F [Example 406, trans-4-(4-((2-(2-chloro-6-(difluoromethoxy)phenyl)-2-oxoethyl)-(2,2-dimethylpropyl)carbamoyl)-5-(trifluoromethyl)pyrazol-1-yl)-1-methylcyclohexane-1-carboxylic acid]
12 | 4.57e+06 pM | O=C(CN(Cc1cc(F)cc(F)c1)C(=O)c1cnn([C@H]2CC[C@H](C(=O)O)CC2)c1C(F)(F)F)C1CCCC1 [Example 113, trans-4-(4-((2-cyclopentyl-2-oxoethyl)-((3,5-difluorophenyl)methyl)carbamoyl)-5-(trifluoromethyl)pyrazol-1-yl)cyclohexane-1-carboxylic acid]
13 | 7590 pM | C[C@]1(C(=O)O)CC[C@H](n2ncc(C(=O)N(CC(=O)c3c(Cl)cc(F)cc3Cl)Cc3cc(F)cc(F)c3)c2C(F)(F)F)CC1 [Example 2, trans-4-(4-((2-(2,6-dichloro-4-fluorophenyl)-2-oxoethyl)(3,5-difluorobenzyl)carbamoyl)-5-(trifluoromethyl)-1H-pyrazol-1-yl)-1-methylcyclohexanecarboxylic acid]
14 | < 3470 pM | CC1(C)CCC(CN(CC(=O)c2c(Cl)cc(Cl)cc2Cl)C(=O)c2cnn([C@H]3CC[C@](C)(C(=O)O)CC3)c2C(F)(F)F)CC1 [Example 239, trans-4-(4-((4,4-dimethylcyclohexyl)methyl-(2-oxo-2-(2,4,6-trichlorophenyl)ethyl)carbamoyl)-5-(trifluoromethyl)pyrazol-1-yl)-1-methylcyclohexane-1-carboxylic acid]
15 | 107000 pM | Cc1cc(Cl)cc(C)c1C(=O)CN(Cc1cc(F)cc(F)c1)C(=O)c1cnn([C@H]2CC[C@H](C(=O)O)CC2)c1C(F)(F)F [Example 268, trans-4-(4-((2-(4-chloro-2,6-dimethylphenyl)-2-oxoethyl)-((3,5-difluorophenyl)methyl)carbamoyl)-5-(trifluoromethyl)pyrazol-1-yl)cyclohexane-1-carboxylic acid]
16 | 178000 pM | N#Cc1cccc(CN(CC(=O)c2c(Cl)cncc2Cl)C(=O)c2cnn([C@H]3CC[C@H](C(=O)O)CC3)c2C(F)(F)F)c1 [Example 170, trans-4-(4-((3-cyanophenyl)methyl-(2-(3,5-dichloropyridin-4-yl)-2-oxoethyl)carbamoyl)-5-(trifluoromethyl)pyrazol-1-yl)cyclohexane-1-carboxylic acid]
17 | 102000 pM | O=C(CN(Cc1ccoc1)C(=O)c1cnn([C@H]2CC[C@H](C(=O)O)CC2)c1C(F)(F)F)c1c(Cl)cncc1Cl [Example 47, trans-4-(4-((2-(3,5-dichloropyridin-4-yl)-2-oxoethyl)(furan-3-ylmethyl)carbamoyl)-5-(trifluoromethyl)-1H-pyrazol-1-yl)cyclohexanecarboxylic acid]
18 | 380000 pM | O=C(CN(Cc1ccc(F)cc1)C(=O)c1cnn([C@H]2CC[C@@](O)(C(=O)O)CC2)c1C(F)(F)F)c1c(Cl)cncc1Cl [Example 106, trans-4-(4-((2-(3,5-dichloropyridin-4-yl)-2-oxoethyl)-((4-fluorophenyl)methyl)carbamoyl)-5-(trifluoromethyl)pyrazol-1-yl)-1-hydroxycyclohexane-1-carboxylic acid]
19 | 95500 pM | O=C(CN(Cc1cc(F)cc(F)c1)C(=O)c1cnn([C@H]2CC[C@H](C(=O)O)CC2)c1C(F)(F)F)c1c(O)cccc1Cl [Example 15, trans-4-(4-((2-(2-chloro-6-hydroxyphenyl)-2-oxoethyl)(3,5-difluorobenzyl)carbamoyl)-5-(trifluoromethyl)-1H-pyrazol-1-yl)cyclohexanecarboxylic acid]
20 | 166000 pM | N#Cc1ccc(CN(CC(=O)c2c(Cl)cncc2Cl)C(=O)c2cnn([C@H]3CC[C@H](C(=O)O)CC3)c2C(F)(F)F)cc1 [Example 171, trans-4-(4-((4-cyanophenyl)methyl-(2-(3,5-dichloropyridin-4-yl)-2-oxoethyl)carbamoyl)-5-(trifluoromethyl)pyrazol-1-yl)cyclohexane-1-carboxylic acid]
21 | 26900 pM | CC(C)(C)CN(CC(=O)c1c(Cl)cncc1Cl)C(=O)c1cnn([C@H]2CC[C@](C)(C(=O)O)CC2)c1C(F)(F)F [Example 186, trans-4-(4-((2-(3,5-dichloropyridin-4-yl)-2-oxoethyl)-(2,2-dimethylpropyl)carbamoyl)-5-(trifluoromethyl)pyrazol-1-yl)-1-methylcyclohexane-1-carboxylic acid]
22 | 38000 pM | O=C(CN(Cc1cc(F)cc(F)c1)C(=O)c1cnn([C@H]2CC[C@H](C(=O)O)CC2)c1C(F)(F)F)c1c(Cl)cc(C(F)(F)F)cc1Cl [Example 57, trans-4-(4-((2-(2,6-dichloro-4-(trifluoromethyl)phenyl)-2-oxoethyl)(3,5-difluorobenzyl)carbamoyl)-5-(trifluoromethyl)-1H-pyrazol-1-yl)cyclohexanecarboxylic acid]
